Assay [1] deals with HIF-2 (HIF-dependent luciferase reporter, U2OS cells). Description: HIF-2 luciferase reporter assay, U2OS. The assay is classed as cell-based, human. The note with it: transfected HIF-2α. An excerpt: In addition, P1 had no effect on VEGF protein levels in hypoxic 786-O cells (Figure 6B). To further probe the effect of P1 on HIF-2, a luciferase reporter assay was developed and used. The assay was derived from the HIF-1 luciferase reporter assay detailed above (Figure 2C and D) and adapted for HIF-2 by replacing the plasmid encoding HIF-1α with the equivalent plasmid encoding HIF-2α. […] P2 and P3 also had no effect on HIF-2 in this assay (Figure S9).
Endogenous HIF-1 luciferase reporter assays were conducted as previously reported in U2OS-HRE-luc[15] and MCF-7 cells.[46] For plasmid-expressed HIF-α luciferase reporter assays, MCF-7 and U2OS cells were transiently transfected with plasmids expressing HIF-1α, HIF-2α, or a blank control (pcDNA3.1-HIF-1α, pcDNA3.1-HIF-2α, or pcDNA3.1), a renilla-encoding control (phRL-TK), and a HIF-dependent firefly luciferase reporter construct (pGL2-TK-HRE), using Transfast (Promega) according to the manufacturer’s instructions. After 24 h, cells were recovered and plated (4000 cells/well) in 96-well plates (Perkin-Elmer) and incubated for 5 h before either hypoxic or aerobic incubation in presence or absence of cyclic peptide inhibitors. Firefly and renilla activities were determined using Dual-Glo Reagent (Promega) according to the manufacturer’s instructions. The luciferase signal was normalized using the corresponding renilla values.

Assay [2] addresses T1, His-HIF-1α1–350 with GST-HIF-1β1–474 (Homo sapiens, UniProt Q16665).
T1 construct: heterodimerization of His-HIF-1α1–350 with GST-HIF-1β1–474 analyzed by ELISA; made in house; host or cells: E. coli BL21(DE3)
Description: ELISA of HIF-1 dimerization. The assay is classed as biochemical. To be noted: pH 7.5, 30 min preincubation, room temperature. An excerpt:
We next probed the effect of cyclo-CLLFVY on the interaction of HIF-1α with HIF-1β in vitro. […] Unfortunately, the positively charged Tat-tag of P1 is incompatible with EMSA (interferes with the bandshift of DNA). […] To determine the HIF-1-specificity of cyclo-CLLFVY, we assessed its ability to disrupt HIF-2 dimerization by ELISA. Recombinant His-HIF-2α1–351 was produced and purified, and shown to form functional heterodimers with GST-HIF-1β1–474 by EMSA (Figure S5B).
HIF-1β1-474, *please note that isoform 3 of HIF-1β was used). The standard protocol for protein expression was followed. Briefly, a 1 % culture in LB was incubated at 37 °C with shaking until OD600 of 0.6 was reached. 0.1 mM IPTG was added and the liquid culture incubated with shaking at 18 °C overnight. Cell pellets were suspended in MHW buffer9 (approximately 4 ml buffer per 1 g cell pellet). Lysozyme (100 µg/ml) was added to the lysate and the solution was incubated with shaking for 20 min at 5 °C. […]
glycerol) was added to individual wells of a Pierce Ni2+-coated 96-well plate (Thermo Scientific, catalogue no. […] The stated quantity of inhibitor (P1 or P2) was added as a solution in 100 µL of buffer to the desired wells, and the plate incubated at room temperature for 30 minutes. […]

The test system of assay [3] is VEGF protein in hypoxic MCF-7 cells. Kind of assay: VEGF protein ELISA, MCF-7. The assay is classed as cell-based, human. To be noted: MCF-7, hypoxia, 100 μM. How it is done:
Cells were treated with the stated concentrations of inhibitor (P1, P2, or P3) and incubated in normoxia for 4 h, followed by incubation in a hypoxic environment. All manipulation of cell pellets (e.g., lysis, mRNA, and protein extraction) was conducted in a hypoxic environment. […]
manufacturer’s instructions.
The loaded beads were washed and blocked with the provide buffers. […]
reagent (RPN2232, GE Healthcare).
Fluorescent binding assay
Scientific, catalogue no. […]
followed by washing with 3 × 200 µL ELISA buffer. 95 µL of EMSA buffer was added to […]
The fluorescence of each well at
Isothermal Titration Calorimetry […]
iTC200 system (GE Healthcare).
P2) was dissolved in the same buffer.
Control experiments for P1 or P2
Quantification of VGEF-A protein by ELISA […]
incubation in hypoxia for 16h. VEGF-A protein concentration was quantified by human

Data on one substance can be found in PMC3715890, “A Cyclic Peptide Inhibitor of HIF-1 Heterodimerization That Inhibits Hypoxia Signaling in Cancer Cells” (Journal of the American Chemical Society, 2013).

Entries after “also recorded” stand apart in the source; their conditions may differ.

Consider “Tat-cyclo-CRLMVL (head to tail) [P2, cyclo-CRLMVL tagged with Tat peptide via a disulfide bond; used as negative control]”, for which the “effect on HIF-2 luciferase reporter signal” value in assay [1] is reported as “do not affect”. Besides, the “effect on HIF-1 dimerization” value in assay [2] is “does not disrupt HIF-1 dimerization; also recorded: had no effect on HIF-1 dimerization”. The VEGF protein level result in assay [3] is “has no effect in either cell line”.
